Experimental data from US20240325553A1, “CYTOSTATIC CONJUGATES WITH INTEGRIN LIGANDS” (priority 2018, published 2024).
Like-named read-outs stand apart in the source and are kept apart here.

How the values were obtained:
[1] = Caco-2 flux assay for cellular permeability; assay type: in vitro ADME; conditions: human
Description: (§1) The cell permeability of a substance can be investigated by means of in vitro testing in a flux assay using Caco-2 cells [M. D. Troutman and D. R. Thakker, Pharm. Res. 20 (8), 1210-1224 (2003)]. For this purpose. the cells were cultured for 15-16 days on 24-well filter plates. […] The samples were separated by HPLC (Agilent 1200. Böblingen. Germany) using reverse phase columns. […] 1716-1725 (2003)]. A substance was classified as actively transported when the ratio of Papp (B-A) to Papp (A-B) (efflux ratio) was >2 or <0.5.

[2] = tested on: P-gp; assay: Cytotoxicity in vitro against NCI-H1975 transfected with P-gp; assay type: cell-based; conditions: human
Description: (§2) The cytotoxic activity of 7-Ethyl camptothecin is not negatively affected when tumor cells NCI-H1975 was transfected with drug transporters p-Glycoprotein (P-gp) and breast cancer resistant protein (BCRP) which is in strong contrast to SN38.

[3] = tested on: BCRP; assay: Cytotoxicity in vitro against NCI-H1975 transfected with BCRP; assay type: cell-based; conditions: human
Description: as §2

[4] = Stability in human plasma; assay type: in vitro ADME; conditions: 37° C.
Description: 1 mg of the test compound was solved in 0.5 ml acetonitrile/dimethylsulfoxide 1:1. For complete dissolution the HPLC vial was shaken and sonicated. While vortexing 20 μl of this solution were added to 1 ml 37° C. warm plasma. After 0.17, 0.5, 1, 1.5, 2 and 4 hours the enzymatic reaction was stopped by adding 100 μl of the compound plasma solution to a vial containing 300 μl acetonitrile/buffer pH3 (80:20) at RT. The mixture was centrifuged at 5000 rpm for 10 minutes. The supernatant was analyzed by HPLC to determine the amount of the test compound and up to two byproducts. t(0) values result from a processed sample immediately taken after vortexing with plasma at RT. The peak areas (in percentage) were used for quantification.

[5] = molecular target: P-gp (ABCB1) (Homo sapiens, UniProt P08183); assay: in vitro
Description: Many tumor cells express transporter proteins for drugs, and this frequently accompanies the development of resistance towards cytostatics.
The substrate properties of a substance for P-gp (ABCB1) were determined by means of a flux assay using LLC-PK1 cells which overexpress P-gp (L-MDR1 cells) [A. H. Schinkel et al., J. Clin. Invest. 96. 1698-1705 (1995)]. For this purpose. the LLC-PK1 cells or L-MDR1 cells were cultured on 96-well filter plates for 3-4 days. For determination of the permeation, the respective test substance, alone or in the presence of an inhibitor (such as ivermectin or verapamil, for example), was applied in a HEPES buffer to the cells either apically (A) or basally (B) and incubated for 2 hours. After ([…] and after 2 hours, samples were taken from the cis and trans compartments. The samples were separated by HPLC using reverse phase columns. The HPLC system was coupled via a Turbo Ion Spray Interface to a Triple Quadropol mass spectrometer API 3000 (Applied Biosystems Applera, Darmstadt, Germany). The permeability was evaluated on the basis of a Papp value, which was calculated using the formula published by Schwab et al. [D. Schwab et al. . . . J. Med. Chem. 46, 1716-1725 (2003)]. A substance was classified as P-gp substrate when the efflux ratio of Papp (B-A) to Papp (A-B) was >2.

[6] = Pharmacokinetics: tumor and plasma levels in 786-O tumor bearing mice; assay type: in vivo, NMRI nu/nu mice; conditions: for Tumor/Plasma enrichment factor (ratio/ratio): relative to direct administration of 7-ethyl camptothecin
Description: (§3) Tumor and plasma samples were collected at different time points and the levels of intact conjugate and of the toxophore 7-ethyl-camptothecin cleaved from the conjugate were determined.
For comparison, 1 mg/kg of 7-ethyl camptothecin was dissolved in a mixture of 5% aqueous dextrose/solutol/DMSO 85/10/5 and administered iv to female. 786-O tumor bearing NMRI nu/nu mice. Again tumor and plasma samples were collected at different time points and the levels of 7-ethyl-camptothecin were determined.
as §3

[7] = tested on: NCI-H1975; assay: Cytotoxicity in vitro against NCI-H1975; assay type: cell-based
Description: as §2

[8] = molecular target: T1, αvβ3 receptor (Homo sapiens, UniProt P05106+P06756); assay: αvβ3 binding test (echistatin SPA)
T1 construct: αvβ3 from human A375 cells was purified analogously to a procedure described by Wong et al; endogenous in cells; host or cells: human A375 cells (receptor purified from the cells)
Description: αvβ3 from human A375 cells was purified analogously to a procedure described by Wong et al. in Molecular Pharmacology 50, 529-537 (1996). In each case, 10 μL of αvβ3 (5 ng) in TBS PH 7.6, 2 mM CaCl2. 1 mM MgCl2. 1% n-octylglucopyranoside (Sigma): 10 μL of test substance in TBS pH 7.6. 0.1% DMSO and 45 μL of TBS pH 7.6. 2 mM CaCl2, 1 mM MgCl2, 1 mM MnCl2 were incubated at room temperature for 1 h. In each case, 25 μL of WGA SPA beads (Amersham, 4 mg/ml) and 10 μL of echistatin (0.1 μCi, Amersham, chloramine-T labelled) were then added. After 16 h at room temperature, the samples were measured in a scintillation measuring apparatus (Wallac 1450).

[9] = tested on: HT29 cell line; assay: Cytotoxicity in vitro (MTT) in the presence and absence of elastase, HT29; assay type: cell-based; conditions: 72 h
Description: (§4) Cultivation of cells was performed according to standard procedures with the media recommended by the provider. The cells in a total volume of 100 μL were seeded in a 96-well plate with white bottom (#3610). After a 24 h incubation period at 37° C. and 5% CO2, the medium was changed by adding 90 μL fresh medium. The treatment starts by adding the test compound to the cells in 10 μl of culture medium. Concentrations from 10^−5 M to 10^−13 M in triplicates were chosen followed by an incubation at 37° C. and 5% carbon dioxide. One set of samples were only treated with the test compound whereas to an otherwise identically treated second set of samples also 10 nM elastase was pipetted. After 72 h. the proliferation is detected using the MTT assay (ATCC). At the end of the incubation period the MTT reagent is added to all samples for 4 h, followed by lysis of the cells overnight by addition of the detergent. The dye formed was detected at 570 nm. The proliferation of cells which were not treated with test substance but were otherwise identically treated was defined as the 100% value. (FIG. 1 and table 4).

[10] = tested on: 786-O cell line; assay: Cytotoxicity in vitro (MTT) in the presence and absence of elastase, 786-O; assay type: cell-based; conditions: 72 h, MTT
Description: as §4

[11] = tested on: Caco-2 cells; assay: Caco-2 flux assay for cellular permeability; assay type: in vitro ADME
Description: as §1

[12] = tested on: NCI-H1975-P-gp; assay: Cytotoxicity in vitro against NCI-H1975 transfected with P-gp; assay type: cell-based
Description: as §2

[13] = tested on: NCI-H1975-BCRP; assay: Cytotoxicity in vitro against NCI-H1975 transfected with BCRP; assay type: cell-based
Description: as §2

[14] = Caco-2, Papp (B-A) to Papp (A-B)

Chain of P-gp (ABCB1) (P08183 whole entry): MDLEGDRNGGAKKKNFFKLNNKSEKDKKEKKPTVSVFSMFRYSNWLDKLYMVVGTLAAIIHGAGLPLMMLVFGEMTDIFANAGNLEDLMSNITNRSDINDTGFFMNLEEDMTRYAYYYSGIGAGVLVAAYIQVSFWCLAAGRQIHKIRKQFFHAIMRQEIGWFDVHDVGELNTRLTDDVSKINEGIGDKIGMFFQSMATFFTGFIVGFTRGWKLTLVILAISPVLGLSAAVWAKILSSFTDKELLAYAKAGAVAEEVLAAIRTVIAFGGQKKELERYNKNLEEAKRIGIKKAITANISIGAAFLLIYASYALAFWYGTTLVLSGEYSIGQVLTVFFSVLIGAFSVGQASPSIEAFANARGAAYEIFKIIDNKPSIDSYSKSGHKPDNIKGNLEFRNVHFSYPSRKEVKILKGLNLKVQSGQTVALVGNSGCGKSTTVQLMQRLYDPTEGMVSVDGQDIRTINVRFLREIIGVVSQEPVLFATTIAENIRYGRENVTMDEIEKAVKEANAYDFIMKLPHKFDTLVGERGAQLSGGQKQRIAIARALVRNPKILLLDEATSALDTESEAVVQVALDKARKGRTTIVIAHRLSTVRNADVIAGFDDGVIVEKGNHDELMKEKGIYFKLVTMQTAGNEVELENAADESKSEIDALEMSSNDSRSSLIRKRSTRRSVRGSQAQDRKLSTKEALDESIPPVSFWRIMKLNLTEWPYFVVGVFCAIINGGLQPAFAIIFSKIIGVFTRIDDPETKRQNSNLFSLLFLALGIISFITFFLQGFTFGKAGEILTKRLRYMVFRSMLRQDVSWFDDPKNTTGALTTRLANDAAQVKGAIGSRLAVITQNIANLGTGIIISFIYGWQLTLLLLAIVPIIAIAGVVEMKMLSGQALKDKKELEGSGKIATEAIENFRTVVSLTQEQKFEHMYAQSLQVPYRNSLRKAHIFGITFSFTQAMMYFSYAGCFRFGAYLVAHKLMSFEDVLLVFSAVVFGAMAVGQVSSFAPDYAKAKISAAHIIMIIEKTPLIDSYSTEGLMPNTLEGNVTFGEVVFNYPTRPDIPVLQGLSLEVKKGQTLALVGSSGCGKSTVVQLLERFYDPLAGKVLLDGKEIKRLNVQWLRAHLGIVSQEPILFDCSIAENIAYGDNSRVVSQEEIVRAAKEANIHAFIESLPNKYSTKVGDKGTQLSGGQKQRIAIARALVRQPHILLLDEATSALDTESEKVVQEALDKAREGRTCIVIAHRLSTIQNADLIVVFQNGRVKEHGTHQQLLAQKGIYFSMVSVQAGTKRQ
T1 sequence (P06756 31-889 limits assumed): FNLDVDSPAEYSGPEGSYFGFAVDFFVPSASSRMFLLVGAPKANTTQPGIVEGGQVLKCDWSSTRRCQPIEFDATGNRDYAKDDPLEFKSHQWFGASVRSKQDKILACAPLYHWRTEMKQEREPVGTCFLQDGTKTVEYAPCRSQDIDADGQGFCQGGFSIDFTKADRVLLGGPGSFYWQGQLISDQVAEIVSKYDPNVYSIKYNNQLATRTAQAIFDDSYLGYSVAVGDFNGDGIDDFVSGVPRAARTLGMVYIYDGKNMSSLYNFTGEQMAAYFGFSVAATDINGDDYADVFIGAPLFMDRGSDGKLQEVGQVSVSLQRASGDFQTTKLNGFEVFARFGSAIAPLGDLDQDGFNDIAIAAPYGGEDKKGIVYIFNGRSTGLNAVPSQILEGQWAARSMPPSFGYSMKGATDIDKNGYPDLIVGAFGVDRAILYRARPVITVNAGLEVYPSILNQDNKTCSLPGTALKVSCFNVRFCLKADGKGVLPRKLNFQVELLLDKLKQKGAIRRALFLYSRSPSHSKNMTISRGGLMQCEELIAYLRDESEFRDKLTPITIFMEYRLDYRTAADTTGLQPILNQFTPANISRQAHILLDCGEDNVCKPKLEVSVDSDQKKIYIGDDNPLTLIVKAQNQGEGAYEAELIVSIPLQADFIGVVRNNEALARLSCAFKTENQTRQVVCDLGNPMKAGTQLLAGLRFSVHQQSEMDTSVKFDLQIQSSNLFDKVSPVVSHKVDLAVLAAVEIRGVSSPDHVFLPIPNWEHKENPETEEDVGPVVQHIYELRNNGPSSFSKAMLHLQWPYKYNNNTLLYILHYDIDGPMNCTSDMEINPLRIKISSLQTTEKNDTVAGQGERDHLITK
T1 sequence (P06756 891-1048 partner limits assumed): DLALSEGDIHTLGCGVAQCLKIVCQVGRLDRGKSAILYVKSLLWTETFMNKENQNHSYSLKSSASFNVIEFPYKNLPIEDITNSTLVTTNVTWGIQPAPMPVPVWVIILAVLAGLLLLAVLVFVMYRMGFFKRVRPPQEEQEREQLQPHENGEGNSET
T1 sequence (P05106 27-788): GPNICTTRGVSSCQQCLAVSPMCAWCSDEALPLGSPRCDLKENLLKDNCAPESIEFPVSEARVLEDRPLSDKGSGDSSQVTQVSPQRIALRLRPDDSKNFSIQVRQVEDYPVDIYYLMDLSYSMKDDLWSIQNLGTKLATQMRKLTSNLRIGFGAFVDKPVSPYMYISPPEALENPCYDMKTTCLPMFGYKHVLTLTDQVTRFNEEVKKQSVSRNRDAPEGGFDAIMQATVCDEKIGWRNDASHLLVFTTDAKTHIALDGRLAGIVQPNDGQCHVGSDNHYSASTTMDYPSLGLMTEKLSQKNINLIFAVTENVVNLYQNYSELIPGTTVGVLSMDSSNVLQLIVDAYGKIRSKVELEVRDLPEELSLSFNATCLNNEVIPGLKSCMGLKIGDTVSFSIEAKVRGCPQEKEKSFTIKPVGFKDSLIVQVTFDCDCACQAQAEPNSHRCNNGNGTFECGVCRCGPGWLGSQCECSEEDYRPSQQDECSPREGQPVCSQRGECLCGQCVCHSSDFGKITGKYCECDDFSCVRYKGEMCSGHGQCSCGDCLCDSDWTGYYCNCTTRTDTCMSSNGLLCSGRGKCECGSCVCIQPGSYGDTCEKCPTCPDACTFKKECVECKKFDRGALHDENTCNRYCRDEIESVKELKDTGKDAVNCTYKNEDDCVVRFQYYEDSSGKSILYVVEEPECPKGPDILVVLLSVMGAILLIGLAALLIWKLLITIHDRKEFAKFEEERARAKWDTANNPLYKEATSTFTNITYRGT

Q: With `CCc1c2c(nc3ccccc13)-c1cc3c(c(=O)n1C2)COC(=O)[C@]3(O)CC` [7-Ethyl-camptothecin, (4S)-4,11-diethyl-4-hydroxy-1H-pyrano[3′,4′:6,7]indolizino[1,2-b]quinoline-3,14(4 H,12H)-dione] as the compound, how does the Papp A→B at 2 h ([1]; Caco-2, 2 hours incubation) read?
A: Its Papp A→B at 2 h is 17.1 ×10⁻⁶ cm/s.

Q: What about the efflux ratio at 2 h [1, 14] of the same compound?
A: Its efflux ratio at 2 h is 1.

Q: And the IC50 [2]?
A: Its IC50 is 34 nM.

Q: And the IC50 [3]?
A: The IC50 was 27 nM.

Q: What about the “stable in human plasma for” value [4] of the same compound?
A: The value was “at least 4 hours”.

Q: What about the Papp A→B at 2 h ([5]; pig, LLC-PK1) of the same compound?
A: Its Papp A→B at 2 h is 19.6 ×10⁻⁶ cm/s.

Q: And the efflux ratio at 2 h ([5]; pig, LLC-PK1)?
A: Its efflux ratio at 2 h is 0.6.

Q: And the Kp ([6]; mouse, tumor and plasma, 1 mg/kg, iv, female 786-O tumor bearing NMRI nu/nu mice, read-out: Tumor/Plasma ratio of 7-ethyl camptothecin)?
A: Its Kp is 0.6.

Q: And the “Tumor/Plasma enrichment factor (ratio/ratio)” value [6]?
A: The value was 1.

Q: What about the IC50 ([7]; Homo sapiens, NCI-H1975) of the same compound?
A: Its IC50 is 19 nM.

Q: Which results are given for `CCCNC(=O)Nc1cccc(S(=O)(=O)Nc2cccc([C@H](CC(=O)[O-])NC(=O)Nc3ccc(NC(=O)NCCOCCOCCOCCC(=O)N[C@@H](CC(=O)[O-])C(=O)N4CCC[C@H]4C(=O)N[C@H](C(=O)O[C@]4(CC)C(=O)OCc5c4cc4n(c5=O)Cc5c-4nc4ccccc4c5CC)C(C)C)cc3)c2)c1.[Na+].[Na+]` [Example 2, disodium (4S)-4,11-diethyl-3,14-dioxo-3,4,12,14-tetrahydro-1H-pyrano[3′,4′: 6,7]indolizino [1,2-b]quinolin-4-yl 1-{(2S)-2-(carboxylatomethyl)-17-[4-({[(1S)-2-carboxylato-1-{3-[({3-[(propyl-carbamoyl)amino]phenyl}sulfonyl)amino]phenyl}ethyl]carbamoyl}amino)anilino]-4,17-dioxo-7,10,13-trioxa-3,16-diazaheptadecan-1-oyl}-L-prolyl-L-valinate]?
A: IC50 [8]: 700 nM; IC50 ([9]; 10 nM elastase, read-out: HT29 cell line IC50 w elastase): 32 nM; IC50 ([9]; without elastase, read-out: HT29 cell line IC50 w/o elastase): > 500 nM; Tumor/Plasma enrichment factor (ratio/ratio) [6]: 2; IC50 ([10]; 10 nM elastase, read-out: 786-O cell line IC50 w elastase): 0.17 nM; IC50 ([10]; without elastase, read-out: 786-O cell line IC50 w/o elastase): 268 nM

Q: For `CC[C@@]1(O)C(=O)OCc2c1cc1n(c2=O)Cc2cc3ccccc3nc2-1` [camptothecin], which “extent of degradation in human plasma” value ([4]; 4 hours) is on record?
A: The value was “about 50%”.

Q: For `CCc1c2c(nc3ccc(O)cc13)-c1cc3c(c(=O)n1C2)COC(=O)[C@]3(O)CC` [SN38], which “permeability Papp A->B” value ([11]; Caco-2, 2 hours incubation) is on record?
A: Its value is 8 nm/s.

Q: What about the efflux ratio [11, 14] of the same compound?
A: Its efflux ratio is 36.

Q: What about the efflux ratio ([11]; Caco-2, new data for SN38) of the same compound?
A: Its efflux ratio is 9.

Q: What about the “permeability Papp A->B” value ([11]; Caco-2, new data for SN38) of the same compound?
A: The value was 20 nm/s.

Q: And the IC50 [12]?
A: The IC50 was 141 nM.

Q: What about the IC50 [13] of the same compound?
A: Its IC50 is 512 nM.

Q: And the “permeability Papp A->B” value ([5]; L-MDR1 cells (LLC-PK1 overexpressing P-gp))?
A: The value was 10 nm/s.

Q: What about the efflux ratio ([5]; L-MDR1 cells, Papp (B-A) to Papp (A-B)) of the same compound?
A: Its efflux ratio is 16.

Q: What about the IC50 [7] of the same compound?
A: The IC50 was 45 nM.
